Our source for the IC50 values is patent US12522602B2, “Derivatives having 2,3-dihydro-1H-indene or 2,3-dihydrobenzofuran moiety or pharmaceutically acceptable salt thereof and pharmaceutical compositions comprising the same” (YUHAN CORPORATION, priority 2019, dated 2026).

Read-outs that look alike come from different tables or passages of the source.

This assay has as its system GM1 production in Jurkat cells. The assay can be described thus: cells. It counts as cell-based.

For the setting “Homo sapiens, Jurkat, 72 h”, `CCC1(CC)Cc2cc(-c3cccc(OC(C)C)c3)ccc2C1NC(=O)O[C@@H]1CN2CCC1CC2` (stereo partly drawn) [Example 291, (S)-quinuclidin-3-yl (2,2-diethyl-5-(3-isopropoxyphenyl)-2,3-dihydro-1H-inden-1-yl)carbamate] had an IC50 of 13.5 nM.

On to `CCc1cccc(-c2ccc3c(c2)CC(CC)(CC)C3NC(=O)O[C@@H]2CN3CCC2CC3)c1` (stereo partly drawn) [Example 292, (S)-quinuclidin-3-yl (2,2-diethyl-5-(3-ethylphenyl)-2,3-dihydro-1H-inden-1-yl)carbamate], for which the midpoint of inhibition (Homo sapiens, Jurkat, 72 h), the IC50, lay at 7.8 nM.

`CCC1(CC)Cc2cc(-c3cccc(C(C)C)c3)ccc2C1NC(=O)O[C@@H]1CN2CCC1CC2` (stereo partly drawn) [Example 293, (S)-quinuclidin-3-yl (2,2-diethyl-5-(3-isopropylphenyl)-2,3-dihydro-1H-inden-1-yl)carbamate] returned an IC50 (Homo sapiens, Jurkat, 72 h) of 8.7 nM.

Compound `CCC1(CC)Cc2cc(-c3cccc(C(C)(C)C)c3)ccc2C1NC(=O)O[C@@H]1CN2CCC1CC2` (stereo partly drawn) [Example 294, (S)-quinuclidin-3-yl (5-(3-(tert-butyl)phenyl)-2,2-diethyl-2,3-dihydro-1H-inden-1-yl)carbamate] gave an IC50 (Homo sapiens, Jurkat, 72 h) of 10.4 nM.

In turn, `CCC1(CC)Cc2cc(-c3cccc(OC)c3OC)ccc2C1NC(=O)O[C@@H]1CN2CCC1CC2` (stereo partly drawn) [Example 295, (S)-quinuclidin-3-yl (5-(2,3-dimethoxyphenyl)-2,2-diethyl-2,3-dihydro-1H-inden-1-yl)carbamate] came in with an IC50 (Homo sapiens, Jurkat, 72 h) of 35 nM.

As for `CCC1(CC)Cc2cc(-c3ccc(OC)cc3OC)ccc2C1NC(=O)O[C@@H]1CN2CCC1CC2` (stereo partly drawn) [Example 296, (S)-quinuclidin-3-yl (5-(2,4-dimethoxyphenyl)-2,2-diethyl-2,3-dihydro-1H-inden-1-yl)carbamate], for the setting “Homo sapiens, Jurkat, 72 h”, the concentration for half-maximal inhibition (IC50) was found to be 15.6 nM.

For `CCC1(CC)Cc2cc(-c3cc(OC)ccc3OC)ccc2C1NC(=O)O[C@@H]1CN2CCC1CC2` (stereo partly drawn) [Example 297, (S)-quinuclidin-3-yl (5-(2,5-dimethoxyphenyl)-2,2-diethyl-2,3-dihydro-1H-inden-1-yl)carbamate], the IC50 (Homo sapiens, Jurkat, 72 h) amounted to 3 nM.

For `CCC1(CC)Cc2cc(-c3ccc(OC)c(OC)c3)ccc2C1NC(=O)O[C@@H]1CN2CCC1CC2` (stereo partly drawn) [Example 298, (S)-quinuclidin-3-yl (5-(3,4-dimethoxyphenyl)-2,2-diethyl-2,3-dihydro-1H-inden-1-yl)carbamate], the midpoint of inhibition (Homo sapiens, Jurkat, 72 h), the IC50, lay at 63.2 nM.

Compound `CCC1(CC)Cc2cc(-c3cc(OC)cc(OC)c3)ccc2C1NC(=O)O[C@@H]1CN2CCC1CC2` (stereo partly drawn) [Example 299, (S)-quinuclidin-3-yl (5-(3,5-dimethoxyphenyl)-2,2-diethyl-2,3-dihydro-1H-inden-1-yl)carbamate] registered an IC50 (Homo sapiens, Jurkat, 72 h) of 25.3 nM.

Where the note is “Homo sapiens, Jurkat, 72 h”, `CCC1(CC)Cc2cc(-c3c(OC)cccc3OC)ccc2C1NC(=O)O[C@@H]1CN2CCC1CC2` (stereo partly drawn) [Example 300, (S)-quinuclidin-3-yl (5-(2,6-dimethoxyphenyl)-2,2-diethyl-2,3-dihydro-1H-inden-1-yl)carbamate] showed an IC50 of 23 nM.

As for `CCC1(CC)Cc2cc(-c3cccc(C(F)F)c3)ccc2C1NC(=O)O[C@@H]1CN2CCC1CC2` (stereo partly drawn) [Example 301, (S)-quinuclidin-3-yl (5-(3-(difluoromethyl)phenyl)-2,2-diethyl-2,3-dihydro-1H-inden-1-yl)carbamate], half-maximal inhibition (Homo sapiens, Jurkat, 72 h) (IC50) was put at 9.6 nM.

Consider `CCC1(CC)Cc2cc(-c3cccc(N(C)C)c3)ccc2C1NC(=O)O[C@@H]1CN2CCC1CC2` (stereo partly drawn) [Example 302, (S)-quinuclidin-3-yl (5-(3-(dimethylamino)phenyl)-2,2-diethyl-2,3-dihydro-1H-inden-1-yl)carbamate], for which, for the setting “Homo sapiens, Jurkat, 72 h”, the IC50 was found to be 4 nM.

In the case of `CCOc1c(C)cc(-c2ccc3c(c2)CC(CC)(CC)C3NC(=O)O[C@@H]2CN3CCC2CC3)cc1C` (stereo partly drawn) [Example 303, (S)-quinuclidin-3-yl (5-(4-ethoxy-3,5-dimethylphenyl)-2,2-diethyl-2,3-dihydro-1H-inden-1-yl)carbamate], under “Homo sapiens, Jurkat, 72 h”, the IC50 turned out to be 27.2 nM.

Turning to `CCCOc1c(C)cc(-c2ccc3c(c2)CC(CC)(CC)C3NC(=O)O[C@@H]2CN3CCC2CC3)cc1C` (stereo partly drawn) [Example 304, (S)-quinuclidin-3-yl (5-(3,5-dimethyl-4-propoxyphenyl)-2,2-diethyl-2,3-dihydro-1H-inden-1-yl)carbamate], the IC50 (read-out: IC50) was 23.5 nM.

The compound `CCCCOc1c(C)cc(-c2ccc3c(c2)CC(CC)(CC)C3NC(=O)O[C@@H]2CN3CCC2CC3)cc1C` (stereo partly drawn) [Example 305, (S)-quinuclidin-3-yl (5-(4-butoxy-3,5-dimethylphenyl)-2,2-diethyl-2,3-dihydro-1H-inden-1-yl)carbamate] gave a half-inhibitory concentration (IC50) (Homo sapiens, Jurkat, 72 h) of 9.8 nM.

For the compound `CCC1(CC)Cc2cc(-c3ccsc3)ccc2C1NC(=O)O[C@@H]1CN2CCC1CC2` (stereo partly drawn) [Example 306, (S)-quinuclidin-3-yl (2,2-diethyl-5-(thiophen-3-yl)-2,3-dihydro-1H-inden-1-yl)carbamate], the IC50 (Homo sapiens, Jurkat, 72 h) was found to be 27.5 nM.

Turning to `CCC1(CC)Cc2cc(-c3ccoc3)ccc2C1NC(=O)O[C@@H]1CN2CCC1CC2` (stereo partly drawn) [Example 307, (S)-quinuclidin-3-yl (2,2-diethyl-5-(furan-3-yl)-2,3-dihydro-1H-inden-1-yl)carbamate], the 50% inhibitory concentration (IC50) (Homo sapiens, Jurkat, 72 h) stood at 30.2 nM.

As for `CCC1(CC)Cc2cc(-c3ccc(OCC4CC4)nc3)ccc2C1NC(=O)O[C@@H]1CN2CCC1CC2` (stereo partly drawn) [Example 308, (S)-quinuclidin-3-yl (5-(6-(cyclopropylmethoxy)pyridin-3-yl)-2,2-diethyl-2,3-dihydro-1H-inden-1-yl)carbamate], the 50% inhibitory concentration (IC50) (Homo sapiens, Jurkat, 72 h) was found to be 5.5 nM.

For the compound `CCC1(CC)Cc2cc(-c3ccc4c(c3)OC(F)(F)O4)ccc2C1NC(=O)O[C@@H]1CN2CCC1CC2` (stereo partly drawn) [Example 309, (S)-quinuclidin-3-yl (5-(2,2-difluorobenzo[d][1,3]dioxol-5-yl)-2,2-diethyl-2,3-dihydro-1H-inden-1-yl)carbamate], the midpoint of inhibition (Homo sapiens, Jurkat, 72 h), the IC50, lay at 11.2 nM.

The compound `CCC1(CC)Cc2cc(-c3ccc(OC)cc3F)ccc2C1NC(=O)O[C@@H]1CN2CCC1CC2` (stereo partly drawn) [Example 310, (S)-quinuclidin-3-yl (2,2-diethyl-5-(2-fluoro-4-methoxyphenyl)-2,3-dihydro-1H-inden-1-yl)carbamate] came in with an IC50 (Homo sapiens, Jurkat, 72 h) of 16.3 nM.

As for `CCC1(CC)Cc2cc(-c3ccc(OC(C)C)c(Cl)c3)ccc2C1NC(=O)O[C@@H]1CN2CCC1CC2` (stereo partly drawn) [Example 311, (S)-quinuclidin-3-yl (5-(3-chloro-4-isopropoxyphenyl)-2,2-diethyl-2,3-dihydro-1H-inden-1-yl)carbamate], for the setting “Homo sapiens, Jurkat, 72 h”, half-maximal inhibition (IC50) was put at 27 nM.

Take `CCc1ccc(-c2cc3c(cc2OC)C(NC(=O)O[C@@H]2CN4CCC2CC4)C(C)(C)C3)cc1` (stereo partly drawn) [Example 312, (S)-quinuclidin-3-yl (5-(4-ethylphenyl)-6-methoxy-2,2-dimethyl-2,3-dihydro-1H-inden-1-yl)carbamate]: where the note is “Homo sapiens, Jurkat, 72 h”, the half-maximal inhibitory concentration (IC50) came to 13.1 nM.

For `CCCc1ccc(-c2cc3c(cc2OC)C(NC(=O)O[C@@H]2CN4CCC2CC4)C(C)(C)C3)cc1` (stereo partly drawn) [Example 313, (S)-quinuclidin-3-yl (6-methoxy-2,2-dimethyl-5-(4-propylphenyl)-2,3-dihydro-1H-inden-1-yl)carbamate], under “Homo sapiens, Jurkat, 72 h”, half-maximal inhibition (IC50) was put at 7.3 nM.

In the case of `COc1cc2c(cc1-c1ccc(C(C)C)cc1)CC(C)(C)C2NC(=O)O[C@@H]1CN2CCC1CC2` (stereo partly drawn) [Example 314, (S)-quinuclidin-3-yl (5-(4-isopropylphenyl)-6-methoxy-2,2-dimethyl-2,3-dihydro-1H-inden-1-yl)carbamate], the concentration for half-maximal inhibition (IC50) (Homo sapiens, Jurkat, 72 h) stood at 7.7 nM.

As for `COc1cc2c(cc1-c1ccc(CC(C)C)cc1)CC(C)(C)C2NC(=O)O[C@@H]1CN2CCC1CC2` (stereo partly drawn) [Example 315, (S)-quinuclidin-3-yl (5-(4-isobutylphenyl)-6-methoxy-2,2-dimethyl-2,3-dihydro-1H-inden-1-yl)carbamate], the midpoint of inhibition, the IC50, lay at 11.3 nM.

For the setting “Homo sapiens, Jurkat, 72 h”, `COc1cc2c(cc1-c1ccc(C(C)(C)C)cc1)CC(C)(C)C2NC(=O)O[C@@H]1CN2CCC1CC2` (stereo partly drawn) [Example 316, (S)-quinuclidin-3-yl (5-(4-(tert-butyl)phenyl)-6-methoxy-2,2-dimethyl-2,3-dihydro-1H-inden-1-yl)carbamate] returned an IC50 of 13.3 nM.

Consider `COc1cc2c(cc1-c1ccc(C3CC3)cc1)CC(C)(C)C2NC(=O)O[C@@H]1CN2CCC1CC2` (stereo partly drawn) [Example 317, (S)-quinuclidin-3-yl (5-(4-cyclopropylphenyl)-6-methoxy-2,2-dimethyl-2,3-dihydro-1H-inden-1-yl)carbamate], for which the IC50 (Homo sapiens, Jurkat, 72 h) amounted to 10.3 nM.

The compound `CCOc1ccc(-c2cc3c(cc2OC)C(NC(=O)O[C@@H]2CN4CCC2CC4)C(C)(C)C3)cc1` (stereo partly drawn) [Example 318, (S)-quinuclidin-3-yl (5-(4-ethoxyphenyl)-6-methoxy-2,2-dimethyl-2,3-dihydro-1H-inden-1-yl)carbamate] returned a half-inhibitory concentration (IC50) (Homo sapiens, Jurkat, 72 h) of 20 nM.

`CCCOc1ccc(-c2cc3c(cc2OC)C(NC(=O)O[C@@H]2CN4CCC2CC4)C(C)(C)C3)cc1` (stereo partly drawn) [Example 319, (S)-quinuclidin-3-yl (6-methoxy-2,2-dimethyl-5-(4-propoxyphenyl)-2,3-dihydro-1H-inden-1-yl)carbamate] came in with an IC50 (Homo sapiens, Jurkat, 72 h) of 7.7 nM.

`COc1cc2c(cc1-c1ccc(OC(C)C)cc1)CC(C)(C)C2NC(=O)O[C@@H]1CN2CCC1CC2` (stereo partly drawn) [Example 320, (S)-quinuclidin-3-yl (5-(4-isopropoxyphenyl)-6-methoxy-2,2-dimethyl-2,3-dihydro-1H-inden-1-yl)carbamate]: the half-inhibitory concentration (IC50) (Homo sapiens, Jurkat, 72 h) amounted to 8.5 nM.

`CCCOc1c(C)cc(-c2cc3c(cc2OC)C(NC(=O)O[C@@H]2CN4CCC2CC4)C(C)(C)C3)cc1C` (stereo partly drawn) [Example 321, (S)-quinuclidin-3-yl (5-(3,5-dimethyl-4-propoxyphenyl)-6-methoxy-2,2-dimethyl-2,3-dihydro-1H-inden-1-yl)carbamate]: the half-maximal inhibitory concentration (IC50) (Homo sapiens, Jurkat, 72 h) amounted to 31.9 nM.

For the compound `COc1cc2c(cc1-c1ccc(OC(C)C)c(Cl)c1)CC(C)(C)C2NC(=O)O[C@@H]1CN2CCC1CC2` (stereo partly drawn) [Example 322, (S)-quinuclidin-3-yl (5-(3-chloro-4-isopropoxyphenyl)-6-methoxy-2,2-dimethyl-2,3-dihydro-1H-inden-1-yl)carbamate], 24.4 nM corresponded to half-maximal inhibition (Homo sapiens, Jurkat, 72 h) (IC50).

Turning to `COc1ccc(-c2cc3c(cc2OC)C(NC(=O)O[C@@H]2CN4CCC2CC4)C(C)(C)C3)c(F)c1` (stereo partly drawn) [Example 323, (S)-quinuclidin-3-yl (5-(2-fluoro-4-methoxyphenyl)-6-methoxy-2,2-dimethyl-2,3-dihydro-1H-inden-1-yl)carbamate], inhibition (Homo sapiens, Jurkat, 72 h) was half-maximal at 78.9 nM (IC50).

In general, IC50 refers to the concentration that gives 50% inhibition.
